The values below come from US20260115187A1, “TRICYCLIC SKELETON COMPOUND AND USE THEREOF IN PREPARATION OF ANTITUMOR DRUG” (ZHONGSHAN HOSPITAL, FUDAN UNIVERSITY, priority 2024, published 2026).

Experiment [1] deals with PLC/PRF/5 KSR2 OE (PLC cells overexpressing KSR2). Description: Cell IC50 assay (CCK8 cell viability), PLC/PRF/5 KSR2 OE. The format is cell-based. The note with it: Homo sapiens, PLC-PRF-5; hepatoma cells, 72 h incubation, CCK8; read-out: IC50 value of cell viability, PLC/PRF/5 KSR2 OE (PLC cells overexpressing KSR2). The method, then: (§1) (1) Cell Preparation: Hepatoma cells (PLC/PRF/5, sourced from the Chinese Academy of Sciences; MHCC97H, sourced from this research institute) in good growth condition are prepared. The cells are trypsinized, diluted, and seeded into 96-well cell culture plates. 1,000-3,000 cells are added per well. The plates are then placed in a cell culture incubator at 37° C. with 5% CO2. Drugs are added after the cells have adhered for 24 h.
(§2) (2) Drug Addition: The drugs are subjected to gradient dilution, typically setting 9 concentrations. Control groups containing no drug medium and medium containing only the drug solvent are also set up. The diluted drugs are added to the cell culture plates seeded the previous day. The plates are incubated for 72 h.
(§3) (3) CCK8 Assay for Cell Viability: CCK8 is mixed with culture medium at a 1:10 ratio. 100 μL of this mixture is added to each well of the cell culture plate. After incubating for 2-4 h, the OD values are measured using a microplate reader.
(§4) (4) Data Analysis: Based on the corresponding OD values, the data are compiled, IC50 curves are plotted, and the IC50 values are obtained.
(§5) (5) IC50 Verification: The theoretical IC50 value is identified from the IC50 curve. Drug concentrations at ½ times, 1 time, and 2 times this theoretical value are used for verification.

For experiment [2], the system named is MHCC97H KSR2 OE (97H cells overexpressing KSR2). Description: Cell IC50 assay (CCK8 cell viability), MHCC97H KSR2 OE. Format: cell-based. As to conditions: Homo sapiens, hepatoma cells, 72 h incubation, CCK8, read-out: IC50 value of cell viability, MHCC97H KSR2 OE (97H cells overexpressing KSR2). The method, then:
as §1, §2, §3, §4, §5

On to `Cn1nc(C(=O)NCCCN2CCC(N)CC2)c2c1-c1ccccc1SC2` [Compound 55], for which the IC50 in experiment [1] was found to be 4 µM; in experiment [2] it was 5 µM.

As for `Cn1nc(C(=O)NCCCN2CCC(N3CCN(S(C)(=O)=O)CC3)CC2)c2c1-c1ccccc1SC2` [Compound 56], the IC50 came to 50 µM in experiment [1] and 62 µM in experiment [2].

Consider `Cn1nc(C(=O)NCCCN2CCC(NC(=O)C3CC3)CC2)c2c1-c1ccccc1SC2` [Compound 57], for which the IC50 in experiment [1] was found to be 2 µM; in experiment [2], 21 µM.

On to `Cn1nc(C(=O)NCCCN2CCC(N3CCN(Cc4ccccc4)CC3)CC2)c2c1-c1ccccc1SC2` [Compound 58], for which the IC50 in experiment [1] and in experiment [2] was 2 µM in each case.

Consider `CC(=O)N1CCN(C2CCN(CCCNC(=O)c3nn(C)c4c3CSc3ccccc3-4)CC2)CC1` [Compound 59], for which the IC50 in experiment [1] is 11 µM; in experiment [2] it was 31 µM.

Consider `CC(C)N1CCN(C2CCN(CCCNC(=O)c3nn(C)c4c3CSc3ccccc3-4)CC2)CC1` [Compound 60], for which the IC50 in experiment [1] was found to be 2 µM; in experiment [2], 4 µM.

Turning to `CCN1CCN(C2CCN(C3CC(CNC(=O)c4nn(C)c5c4CSc4ccccc4-5)C3)CC2)CC1` (centres unmarked) [Compound 61], the IC50 was 0.2 µM in experiment [1] and 1 µM in experiment [2].

For the molecule `Cn1nc(C(=O)NCCCN2CCC(N3CCN(C4CC4)CC3)CC2)c2c1-c1ccccc1SC2` [Compound 63], the IC50 in experiment [1] turned out to be 12 µM; in experiment [2], 10 µM.

Take `Cn1nc(C(=O)NCCCN2CCC(N3CCN(CC4CC4)CC3)CC2)c2c1-c1ccccc1SC2` [Compound 64]: the IC50 in experiment [1] turned out to be 5 µM; in experiment [2], 6 µM.

Consider `CN(Cc1ccccc1)C1CCN(CCCNC(=O)c2nn(C)c3c2CSc2ccccc2-3)CC1` [Compound 65], for which the IC50 stood at 8 µM in experiment [1] and 14 µM in experiment [2].

On to `COCCN1CCN(C2CCN(CCCNC(=O)c3nn(C)c4c3CSc3ccccc3-4)CC2)CC1` [Compound 66], for which the IC50 in experiment [1] was found to be 19 µM; in experiment [2], 21 µM.

As for `Cn1nc(C(=O)NCCCN2CCC(N3CCN(CCO)CC3)CC2)c2c1-c1ccccc1SC2` [Compound 67], the IC50 was found to be 20 µM in experiment [1] and 24 µM in experiment [2].

Turning to `CN1CCN(C2CCN(CCCNC(=O)c3nn(C)c4c3COc3cc(Cl)ccc3-4)CC2)CC1` [Compound 68], the IC50 in experiment [1] is 0.7 µM; in experiment [2], 2 µM.

In the case of `CN1CCN(C2CCN(CCCNC(=O)c3nn(C)c4c3COc3ccc(Cl)cc3-4)CC2)CC1` [Compound 69], the IC50 is 0.6 µM in experiment [1] and 5 µM in experiment [2].

For the molecule `Cn1nc(C(=O)NCCCN2CCC(N3CCN(CC4COC4)CC3)CC2)c2c1-c1ccccc1SC2` [Compound 70], the values for the IC50 in experiment [1] and in experiment [2] were 39 µM and 9 µM, respectively.

With `CN1CCN(C2CCN(CCCNC(=O)c3nn(C)c4c3COc3cc(F)ccc3-4)CC2)CC1` [Compound 71], the IC50 in experiment [1] was 8 µM; in experiment [2], 5 µM.

With `CN1CCN(C2CCN(CCCNC(=O)c3nn(C)c4c3COc3c(Cl)cccc3-4)CC2)CC1` [Compound 72], the IC50 in experiment [1] and in experiment [2] was 2 µM each time.

`CN1CCN(C2CCN(CCCNC(=O)c3nn(C)c4c3COc3c(F)cccc3-4)CC2)CC1` [Compound 73]: the IC50 was determined as 12 µM in experiment [1] and 3 µM in experiment [2].

Take `CN1CC2CCC(C1)N2C1CCN(CCCNC(=O)c2nn(C)c3c2CSc2ccccc2-3)CC1` [Compound 74]: the IC50 in experiment [1] is 10 µM; in experiment [2], 8 µM.

As for `CN1CCN(C2CCN(CCCNC(=O)c3nn(C)c4c3CS(=O)(=O)c3ccccc3-4)CC2)CC1` [Compound 75], the IC50 in experiment [1] was found to be 18 µM; in experiment [2], 105 µM.

Consider `CN1CCN(C2CCN(CCCNC(=O)c3nn(C)c4c3COc3ccc(F)cc3-4)CC2)CC1` [Compound 76], for which the IC50 in experiment [1] was 18 µM; in experiment [2] it was 22 µM.

`CN1CCN(C2CN(C3CC(CNC(=O)c4nn(C)c5c4CSc4ccccc4-5)C3)C2)CC1` (centres unmarked) [Compound 77]: the IC50 in experiment [1] came to 21 µM; in experiment [2], 27 µM.

For the molecule `CN1CCN(C2CCN(C3CC(CNC(=O)c4nn(C)c5c4CSc4ccccc4-5)C3)CC2)CC1` (centres unmarked) [Compound 78], the IC50 was 12 µM in experiment [1] and 6 µM in experiment [2].

Regarding `Cn1nc(C(=O)NCCCN2CCC(N3CCN(CCC#N)CC3)CC2)c2c1-c1ccccc1SC2` [Compound 79], the IC50 in experiment [1] worked out at 57 µM; in experiment [2], 40 µM.

For `CCN1CCN(C2CN(C3CC(CNC(=O)c4nn(C)c5c4CSc4ccccc4-5)C3)C2)CC1` (centres unmarked) [Compound 80], the figures for the IC50 in experiment [1] and in experiment [2] were 28 µM and 8 µM, respectively.

Turning to `CCN1CCN(C2CN(CCCNC(=O)c3nn(C)c4c3CSc3ccccc3-4)C2)CC1` [Compound 81], the IC50 came out at 26 µM in experiment [1] and 11 µM in experiment [2].

Consider `CN1CCN(C2CCN(CCCNC(=O)c3nn(C)c4c3COc3ccc(C#N)cc3-4)CC2)CC1` [Compound 82], for which the IC50 in experiment [1] and in experiment [2] was 8 µM in each case.

For the molecule `CN1CCN(C2CCN(CCCNC(=O)c3n[nH]c4c3CSc3ccccc3-4)CC2)CC1` [Compound 83], the IC50 in experiment [1] was 18 µM; in experiment [2], 10 µM.

Turning to `CCN1CCN(C2CCN(CCCNC(=O)c3nn(C)c4c3COc3cc(Cl)ccc3-4)CC2)CC1` [Compound 84], the results for the IC50 in experiment [1] and in experiment [2] were 2 µM and 1 µM, respectively.

For the molecule `CN1CCN(C2CN(CCCNC(=O)c3nn(C)c4c3CSc3ccccc3-4)C2)CC1` [Compound 85], the IC50 in experiment [1] was 25 µM; in experiment [2], 19 µM.

For `CN1CCN(C2CN(CCCNC(=O)c3nn(C)c4c3COc3cc(Cl)ccc3-4)C2)CC1` [Compound 86], the IC50 in experiment [1] and in experiment [2] was 6 µM in each case.

For the molecule `CCN1CCN(C2CN(CCCNC(=O)c3nn(C)c4c3COc3cc(Cl)ccc3-4)C2)CC1` [Compound 87], the IC50 is 6 µM in experiment [1] and 3 µM in experiment [2].

Consider `CN1CCN(C2CCN(CCCNC(=O)c3nn(C4COC4)c4c3CSc3ccccc3-4)CC2)CC1` [Compound 88], for which the IC50 in experiment [1] worked out at 22 µM; in experiment [2], 41 µM.

Regarding `CN1CCN(C2CCN(CCCNC(=O)c3c4c(nn3C3COC3)-c3ccccc3SC4)CC2)CC1` [Compound 89], the IC50 in experiment [1] stood at 15 µM; in experiment [2] it was 32 µM.

`CN1CCN(C2CCN(CCCNC(=O)c3nn(CC(C)(C)O)c4c3CSc3ccccc3-4)CC2)CC1` [Compound 90]: the IC50 was 21 µM in experiment [1] and 34 µM in experiment [2].

As for `CN1CCN(C2CCN(CCCNC(=O)c3nn(C)c4c3COc3cc(C(F)(F)F)ccc3-4)CC2)CC1` [Compound 91], the results for the IC50 in experiment [1] and in experiment [2] were 2 µM and 4 µM, respectively.

For the molecule `CN1CCN(C2CCN(CCCNC(=O)c3nn(C)c4c3COc3cc(Br)ccc3-4)CC2)CC1` [Compound 92], the IC50 in experiment [1] and in experiment [2] was 4 µM in each case.

Consider `CN1CCN(C2CCN(CCCNC(=O)c3nn(C)c4c3COc3cc(C5CC5)ccc3-4)CC2)CC1` [Compound 93], for which the IC50 in experiment [1] worked out at 3 µM; in experiment [2], 4 µM.

With `CN1CCN(C2CCN(CCCNC(=O)c3nn(C)c4c3COc3cc(C#N)ccc3-4)CC2)CC1` [Compound 94], the IC50 in experiment [1] worked out at 7 µM; in experiment [2], 10 µM.

With `CN1CCN(C2CCN(CCCNC(=O)c3nn(C)c4c3COc3cc(-c5cnn(C)c5)ccc3-4)CC2)CC1` [Compound 95], the IC50 in experiment [1] and in experiment [2] was 2 µM throughout.

`CN1CCN(C2CCN(CCCNC(=O)c3nn(C)c4c3CSc3cc(Cl)ccc3-4)CC2)CC1` [Compound 96]: the IC50 worked out at 4 µM in experiment [1] and 1 µM in experiment [2].

`CN1CCN(C2CN(CCCNC(=O)c3nn(C)c4c3CSc3cc(Cl)ccc3-4)C2)CC1` [Compound 97]: the IC50 in experiment [1] turned out to be 7 µM; in experiment [2] it was 5 µM.

As for `Cn1nc(C(=O)NCCCN2CC(N3CCOCC3)C2)c2c1-c1ccc(Cl)cc1OC2` [Compound 98], the IC50 in experiment [1] is 18 µM; in experiment [2], 29 µM.

Regarding `CN1CCN(C2CN(C3CC(CNC(=O)c4nn(C)c5c4COc4cc(Cl)ccc4-5)C3)C2)CC1` (centres unmarked) [Compound 99], the results for the IC50 in experiment [1] and in experiment [2] were 9 µM and 17 µM, respectively.

As to `CN1CCCC12CN(CCCNC(=O)c1nn(C)c3c1CSc1ccccc1-3)C2` [Compound 100], the IC50 was found to be 61 µM in experiment [1] and 71 µM in experiment [2].

On to `CN1CCN(C2CCN(CCCNC(=O)c3nn(C)c4c3COc3cc(Cl)c(Br)cc3-4)CC2)CC1` [Compound 101], for which the IC50 in experiment [1] and in experiment [2] was 1 µM throughout.

Take `CN1CCN(C2CCN(CCCNC(=O)c3c4c(nn3C)-c3cc(Br)c(Cl)cc3OC4)CC2)CC1` [Compound 102]: the IC50 in experiment [1] and in experiment [2] was 1 µM throughout.

Consider `CC(C)N1CCN(C2CN(CCCNC(=O)c3nn(C)c4c3COc3cc(Cl)ccc3-4)C2)CC1` [Compound 103], for which the IC50 in experiment [1] and in experiment [2] was 5 µM each time.

Turning to `Cn1nc(C(=O)NCCCN2CC(N3CC[C@H](O)C3)C2)c2c1-c1ccc(Cl)cc1OC2` [Compound 104], the IC50 in experiment [1] came out at 30 µM; in experiment [2], 41 µM.
